Results from US12030879B2, “Sulfonyl acetamides as NLRP3 inhibitors” (Inflazome Limited, priority 2018, dated 2024).
Where a name gives a salt, the structure may show the parent alone.

Target: T1, NLRP3 (Homo sapiens, UniProt Q96P20)
T1 construct: Seed THP-1 cells (25,000 cells/well) containing 1.0 μg/ml LPS in 40 μl of RPMI medium; host or cells: THP-1 cells
Assay: THP-1 cells pyroptosis assay
Type: cell-based
Settings: LPS 1 μg/ml, compound 3 hrs, nigericin 5 μM 1 hr, resazurin readout
Protocol: THP-1 cells (ATCC #TIB-202) were grown in RPMI containing L-glutamine (Gibco #11835) supplemented with 1 mM sodium pyruvate (Sigma #S8636) and penicillin (100 units/ml)/streptomycin (0.1 mg/ml) (Sigma #P4333) in 10% Fetal Bovine Serum (FBS) (Sigma #F0804). The cells were routinely passaged and grown to confluency (10^6 cells/ml). On the day of the experiment, THP-1 cells were harvested and resuspended into RPMI medium (without FBS). The cells were then counted and viability (>90%) checked by Trypan blue (Sigma #T8154). Appropriate dilutions were made to give a concentration of 625,000 cells/ml. To this diluted cell solution was added LPS (Sigma #L4524) to give a 1 μg/ml Final Assay Concentration (FAC). 40 μl of the final preparation was aliquoted into each well of a 96-well plate. The plate thus prepared was used for compound screening.
The following method step-by-step assay was followed for compound screening. • 1. Seed THP-1 cells (25,000 cells/well) containing 1.0 μg/ml LPS in 40 μl of RPMI medium (without FBS) in 96-well, black walled, clear bottom cell culture plates coated with poly-D-lysine (VWR #734-0317) • 2. Add 5 μl compound (8 points half-log dilution, with 10 μM top dose) or vehicle (DMSO 0.1% FAC) to the appropriate wells • 3. Incubate for 3 hrs at 37° C., 5% CO2 • 4. Add 5 μl nigericin (Sigma #N7143) (FAC 5 μM) to all wells • 5. Incubate for 1 hr at 37° C., 5% CO2 • 6. At the end of the incubation period, spin plates at 300×g for 3 mins and remove supernatant • 7. Then add 50 μl of resazurin (Sigma #R7017)(FAC 100 μM resazurin in RPMI medium without FBS) and incubate plates for a further 1-2 hrs at 37° C. and 5% CO2 • 8. Plates were read in an Envision reader at Ex 560 nm and Em 590 nm • 9. IC50 data is fitted to a non-linear regression equation (log inhibitor vs response-variable slope 4-parameters) 96-well Plate Map

T1 sequence (Q96P20 whole entry): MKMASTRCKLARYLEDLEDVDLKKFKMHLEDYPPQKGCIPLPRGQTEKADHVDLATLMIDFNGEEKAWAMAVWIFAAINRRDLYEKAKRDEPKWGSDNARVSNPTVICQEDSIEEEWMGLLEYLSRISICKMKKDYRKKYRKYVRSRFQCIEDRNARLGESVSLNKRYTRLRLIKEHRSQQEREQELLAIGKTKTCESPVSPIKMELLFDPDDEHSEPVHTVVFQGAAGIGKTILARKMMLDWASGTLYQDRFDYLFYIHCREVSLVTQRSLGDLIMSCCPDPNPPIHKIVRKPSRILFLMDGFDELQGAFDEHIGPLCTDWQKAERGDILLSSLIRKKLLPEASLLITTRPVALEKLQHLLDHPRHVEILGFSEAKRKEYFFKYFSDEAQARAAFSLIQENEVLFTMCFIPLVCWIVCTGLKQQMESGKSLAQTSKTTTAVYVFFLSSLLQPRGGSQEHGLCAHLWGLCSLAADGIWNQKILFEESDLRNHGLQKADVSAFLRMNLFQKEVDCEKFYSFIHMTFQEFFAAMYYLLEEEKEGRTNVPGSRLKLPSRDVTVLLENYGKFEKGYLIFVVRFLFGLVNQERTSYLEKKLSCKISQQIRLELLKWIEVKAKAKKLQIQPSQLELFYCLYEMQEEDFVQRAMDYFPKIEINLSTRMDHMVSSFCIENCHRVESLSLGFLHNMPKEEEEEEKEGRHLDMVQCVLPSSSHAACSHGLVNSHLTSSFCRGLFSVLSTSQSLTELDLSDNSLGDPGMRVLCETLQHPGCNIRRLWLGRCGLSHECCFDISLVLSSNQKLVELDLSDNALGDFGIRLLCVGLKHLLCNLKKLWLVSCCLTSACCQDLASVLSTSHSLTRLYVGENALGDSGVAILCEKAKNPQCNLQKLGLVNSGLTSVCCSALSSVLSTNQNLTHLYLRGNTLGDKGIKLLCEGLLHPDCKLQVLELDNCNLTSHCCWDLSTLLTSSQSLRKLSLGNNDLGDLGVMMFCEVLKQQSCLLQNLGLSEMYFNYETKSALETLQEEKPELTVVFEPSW

SMILES | IC50
COc1cc(-c2cc(F)cc(C(C)C)c2CC(=O)NS(=O)(=O)c2cccc(Cl)c2)ccn1 [Example 5] | ≤ 1 µM
CC(C)c1cc(F)cc(-c2cccnc2)c1CC(=O)NS(=O)(=O)c1cc(C(=O)N(C)C)n(C)n1 [Example 59, 3-(N-(2-(4-Fluoro-2-isopropyl-6-(pyridin-3-yl)phenyl)acetyl)sulfamoyl)-N,N,1-trimethyl-1H-pyrazole-5-carboxamide] | ≤ 5 µM
COc1cc(-c2cc(F)cc(C(C)C)c2CC(=O)NS(=O)(=O)c2cc(C(C)(C)O)co2)ccn1 [Example 40, 2-(4-Fluoro-2-isopropyl-6-(2-methoxypyridin-4-yl)phenyl)-N-((4-(2-hydroxypropan-2-yl)furan-2-yl)sulfonyl)acetamide] | ≤ 0.5 µM
COc1cc(-c2cc(F)cc(C(C)C)c2CC(=O)NS(=O)(=O)c2ccc3c(c2)C(C)(C)OC3=O)ccn1 [Example 29, N-((3,3-Dimethyl-1-oxo-1,3-dihydroisobenzofuran-5-yl)sulfonyl)-2-(4-fluoro-2-isopropyl-6-(2-methoxypyridin-4-yl)phenyl) acetamide] | ≤ 5 µM
COc1cc(-c2cc(F)cc(C(C)C)c2CC(=O)NS(=O)(=O)c2ccc(B(O)O)cc2)ccn1 [Example 18] | ≤ 10 µM
COc1cc(-c2cc(F)cc(C(C)C)c2CC(=O)NS(=O)(=O)C(C)c2ccccc2)ccn1 (stereo not shown) [Example 41, 2-(4-Fluoro-2-isopropyl-6-(2-methoxypyridin-4-yl)phenyl)-N-((1-phenylethyl)sulfonyl)acetamide] | ≤ 10 µM
COc1cc(-c2cc(F)cc(C(C)C)c2CC(=O)NS(=O)(=O)c2ccccc2Cl)ccn1 [Example 7] | ≤ 5 µM
COc1cc(-c2cc(F)cc(C(C)C)c2CC(=O)NS(=O)(=O)c2cc(C(=O)N(C)C)n(C)n2)ccn1 [Example 58, 3-(N-(2-(4-Fluoro-2-isopropyl-6-(2-methoxypyridin-4-yl)phenyl)acetyl)sulfamoyl)-N,N,1-trimethyl-1H-pyrazole-5-carboxamide] | ≤ 1 µM
COc1cc(-c2cc(F)cc(C(C)C)c2CC(=O)NS(=O)(=O)c2cnn(C)c2)ccn1 [Example 42, 2-(4-Fluoro-2-isopropyl-6-(2-methoxypyridin-4-yl)phenyl)-N-((1-methyl-1H-pyrazol-4-yl)sulfonyl)acetamide] | ≤ 10 µM
CC(C)(O)c1csc(S(=O)(=O)NC(=O)Cc2c(-c3ccnc(C#N)c3)ccc3c2CCC3)c1 [Example 22, 2-(5-(2-Cyanopyridin-4-yl)-2,3-dihydro-1H-inden-4-yl)-N-((4-(2-hydroxypropan-2-yl)thiophen-2-yl)sulfonyl)acetamide] | ≤ 5 µM
CC(C)c1cc(F)cc(-c2cccnc2)c1CC(=O)NS(=O)(=O)c1ccc(Cl)cc1 [Example 17] | ≤ 5 µM
COc1cc(-c2cc(F)cc(C(C)C)c2CC(=O)NS(=O)(=O)c2cccc(C(C)(C)C#N)c2)ccn1 [Example 81, N-((3-(2-Cyanopropan-2-yl)phenyl)sulfonyl)-2-(4-fluoro-2-isopropyl-6-(2-methoxypyridin-4-yl)phenyl)acetamide] | ≤ 5 µM
CCN(CC)CCCS(=O)(=O)NC(=O)Cc1c(-c2ccnc(OC)c2)cc(F)cc1C(C)C [Example 57, N-((3-(Diethylamino)propyl)sulfonyl)-2-(4-fluoro-2-isopropyl-6-(2-methoxypyridin-4-yl)phenyl)acetamide, potassium salt] | ≤ 5 µM
COc1cc(-c2cc(F)cc(C(C)C)c2CC(=O)NS(=O)(=O)c2cn(C)c(=O)n(C)c2=O)ccn1 [Example 3, N-((1,3-Dimethyl-2,4-dioxo-1,2,3,4-tetrahydropyrimidin-5-yl)sulfonyl)-2-(4-fluoro-2-isopropyl-6-(2-methoxypyridin-4-yl)phenyl)acetamide] | ≤ 1 µM
COc1cc(-c2cc(F)cc(C(C)C)c2CC(=O)NS(=O)(=O)c2ccc(Cl)c(Cl)c2)ccn1 [Example 11] | ≤ 1 µM
COc1cc(-c2ccc3c(c2CC(=O)NS(=O)(=O)N(C)C2CCN(C)C2)CCC3)ccn1 (stereo not shown) [Example 55, 2-(5-(2-Methoxypyridin-4-yl)-2,3-dihydro-H-inden-4-yl)-N—(N-methyl-N-(1-methylpyrrolidin-3-yl)sulfamoyl)acetamide, potassium salt] | ≤ 5 µM
CC(C)c1cc(F)cc(-c2ccncc2)c1CC(=O)NS(=O)(=O)c1ccc(CN(C)C)cc1 [Example 36, N-((4-((Dimethylamino)methyl)phenyl)sulfonyl)-2-(4-fluoro-2-isopropyl-6-(pyridin-4-yl)phenyl)acetamide] | ≤ 5 µM

Second part, the compound after the results:

IC50 | SMILES
≤ 5 µM | Cc1cc(C(C)(C)O)ccc1S(=O)(=O)NC(=O)Cc1c(-c2cccnc2)cc(F)cc1C(C)C [Example 82, 2-(4-Fluoro-2-isopropyl-6-(pyridin-3-yl)phenyl)-N-((4-(2-hydroxypropan-2-yl)-2-methylphenyl)sulfonyl)acetamide]
≤ 1 µM | COc1cc(-c2cc(F)cc(C(C)C)c2CC(=O)NS(=O)(=O)c2ccc(Br)cc2C)ccn1 [Example 129]
≤ 0.5 µM | COc1cc(-c2cc(F)cc(C(C)C)c2CC(=O)NS(=O)(=O)c2ccc3ccccc3c2)ccn1 [Example 126]
≤ 5 µM | COc1ccc(-c2cc(F)cc(C(C)C)c2CC(=O)NS(=O)(=O)c2ccc(C(C)(C)O)cc2C)cn1 [Example 97, 2-(4-Fluoro-2-isopropyl-6-(6-methoxypyridin-3-yl)phenyl)-N-((4-(2-hydroxypropan-2-yl)-2-methylphenyl)sulfonyl)acetamide]
≤ 0.5 µM | COc1cc(-c2cc(F)cc(C(C)C)c2CC(=O)NS(=O)(=O)c2cc(C(C)(C)O)c(C)s2)ccn1 [Example 159]
≤ 5 µM | COc1cc(-c2cc(F)cc(C(C)C)c2CC(=O)NS(=O)(=O)c2ccc(CCNC(C)=O)cc2)ccn1 [Example 130]
≤ 0.5 µM | COc1cc(-c2cc(F)cc(C(C)C)c2CC(=O)NS(=O)(=O)c2cncc(C(C)(C)O)c2)ccn1 [Example 198]
≤ 5 µM | COc1cc(-c2cc(F)cc(C(C)C)c2CC(=O)NS(=O)(=O)c2cc(N(C)C)ccc2C)ccn1 [Example 153]
≤ 1 µM | COc1cc(-c2cc(F)cc(C(C)C)c2CC(=O)NS(=O)(=O)c2ccc(C(C)(C)O)c(F)c2)ccn1 [Example 84, 2-(4-Fluoro-2-isopropyl-6-(2-methoxypyridin-4-yl)phenyl)-N-((3-fluoro-4-(2-hydroxypropan-2-yl)phenyl)sulfonyl)acetamide]
≤ 0.5 µM | COc1cc(-c2cc(F)cc(C(C)C)c2CC(=O)NS(=O)(=O)c2ccc(C)c(F)c2)ccn1 [Example 125]
≤ 1 µM | CC(C)c1cc(F)cc(-c2cccnc2)c1CC(=O)NS(=O)(=O)c1cnc(C(C)(C)O)s1 [Example 142]
≤ 0.5 µM | COc1cc(-c2cc(F)cc(C(C)C)c2CC(=O)NS(=O)(=O)c2cc(C)c(C)s2)ccn1 [Example 121]
≤ 0.5 µM | COc1cc(-c2cc(F)cc(C(C)C)c2CC(=O)NS(=O)(=O)c2cc(C(C)C)cs2)ccn1 [Example 205]
≤ 5 µM | COc1cc(-c2cc(F)cc(C(C)C)c2CC(=O)NS(=O)(=O)c2ccn(C(C)(C)CO)n2)ccn1 [Example 195]
≤ 10 µM | COc1cc(-c2cc(F)cc(C(C)C)c2CC(=O)NS(=O)(=O)c2ccc(O)nc2C)ccn1 [Example 102, 2-(4-Fluoro-2-isopropyl-6-(2-methoxypyridin-4-yl)phenyl)-N-((6-hydroxy-2-methylpyridin-3-yl)sulfonyl)acetamide]
≤ 0.5 µM | COc1cc(-c2cc(F)cc(C(C)C)c2CC(=O)NS(=O)(=O)c2cc(C(C)C)c(F)cc2F)ccn1 [Example 156]
≤ 10 µM | COc1cc(-c2cc(F)cc(C(C)C)c2CC(=O)NS(=O)(=O)c2cc(C(C)(C)O)n(C(C)C)n2)ccn1 [Example 196]
≤ 5 µM | CNc1cc(C)c(S(=O)(=O)NC(=O)Cc2c(-c3ccnc(OC)c3)cc(F)cc2C(C)C)cc1C [Example 155]
≤ 10 µM | CNC(=O)c1ccc(S(=O)(=O)NC(=O)Cc2c(-c3ccnc(OC)c3)cc(F)cc2C(C)C)c(C)c1 [Example 182]
≤ 10 µM | COc1cc(-c2ccc3c(c2CC(=O)NS(=O)(=O)c2ncc(C(C)(C)O)s2)CCC3)ccn1 [Example 105, N-((5-(2-Hydroxypropan-2-yl)thiazol-2-yl)sulfonyl)-2-(5-(2-methoxypyridin-4-yl)-2,3-dihydro-1H-inden-4-yl)acetamide]
≤ 5 µM | COc1cc(-c2cc(F)cc(C(C)C)c2CC(=O)NS(=O)(=O)c2cnn(CC(C)(C)O)c2)ccn1 [Example 193]
≤ 0.5 µM | Cc1cc(C(C)(C)O)ccc1S(=O)(=O)NC(=O)Cc1c(-c2ccncc2)cc(F)cc1C(C)C [Example 186]
≤ 1 µM | COc1cccc(S(=O)(=O)NC(=O)Cc2c(-c3ccnc(OC)c3)cc(F)cc2C(C)C)c1 [Example 119]
